Laboratory results from publication PMC8156151 (The European Respiratory Journal, 2021).
Like-named read-outs stand apart in the source and are kept apart here.

What was measured:
Assay type in all cases: in vivo, human
[1] = tested on: PAI-1; assay: Plasma biomarker PAI-1; settings: for PAI-1 raw data, Mean (SD) / PAI-1 least square means % baseline±SEM: IPF patients
Protocol: (§1) All patients, investigators, sites and study sponsor personnel were blinded to the study group assignments throughout the study. Patients underwent study-specific assessments on days 2, 3, 7, 14 and 15, and a post-study assessment was carried out 26–30 days after the last day of the study period. Assessments included vital signs (supine blood pressure, pulse, oxygen saturation, oral temperature and respiratory rate), spirometry, 12-lead ECG, physical examination, laboratory safety screen (haematology, biochemistry, urinalysis and urinary drugs of abuse screen) and blood sampling for PK measurements. All adverse events and concomitant medications were recorded from the time of the screening visit until the post-study follow-up visit. BAL was performed at day −1 (24 h before the first dose) and at day 14 (2 h after the last dose). The BAL procedure was performed as per international guidelines. Briefly, 240 mL of 0.9% saline at room temperature was instilled in 40 mL aliquots into the right middle lobe and aspirated by suction after each aliquot.
(§2) BAL cells were separated from fluid by centrifugation, and cells were collected, stained with antibodies (supplementary material) and then fixed before analysis using a LSR Fortessa flow cytometer (Becton Dickinson, Franklin Lakes, NJ, USA). Data were analysed using FlowJo software (Tree Star, Ashland, OR, USA). Macrophages were identified as having high side scatter properties and human leukocyte antigen-DR positivity. Gal-3 expression (mean fluorescence intensity) was determined from the macrophage gate (supplementary figures S1 and S2). […] Samples were analysed by magnetic Luminex assay (R&D Systems, Minneapolis, MN, USA) or ELISA.
(§3) For part 2 of the study, placebos were combined from the three dose-specific cohorts into a pooled control group (n=9). For alveolar macrophage Gal-3 expression and the plasma biomarkers, ANCOVA was performed for percentage of baseline ((day 14/day 1)×100). The ANCOVA model included effects for treatment group and baseline (day 1) value. […] An additional analysis including dose as a continuous covariate was also performed. The Pearson correlation coefficient (r) and associated p-value were calculated for percentage of baseline and day 14 values between plasma biomarkers and alveolar macrophage Gal-3 expression. […] The analysis is exploratory and there was no pre-planned adjustment for multiple testing; the study was not powered for this. Alveolar macrophage Gal-3 expression was considered the primary exploratory analysis with the pre-selected biomarkers secondary. A Bonferroni correction for multiple testing of the secondary end-points comparing the 10 mg group with placebo gives a critical value of 0.0063. Data are presented as the difference in least square means with 95% confidence interval and p-value unless otherwise stated. All analyses were performed using SAS version 9.4 (SAS Institute, Cary, NC, USA). […]

[2] = tested on: IL-13; assay: Plasma biomarker IL-13; settings: for IL-13 raw data, Mean (SD) / IL-13 least square means % baseline±SEM: IPF patients
Protocol: as §1, §2, §3

[3] = Plasma pharmacokinetics, part 1 (healthy subjects)
Protocol: Subjects were discharged 24 h post-dose (day 2) provided there were no safety concerns, and returned for three outpatient visits on days 3, 8 and 14 post-dose, with a post-study follow-up between days 26 and 30. Safety and PK assessments were made at predetermined time-points.
Full plasma PK profiles were conducted on days 1 (first day of dosing) and 14 (last day of dosing). […] Standard noncompartmental methods were applied to derive PK parameters using Phoenix WinNonlin version 6.3 (Certara, Sheffield, UK). […] Drug compartment measurements in BAL alveolar macrophages and fluid were determined as described previously.

[4] = tested on: CCL5 (RANTES); assay: Plasma biomarker CCL5; settings: for CCL5 (RANTES) raw data, Mean (SD) / CCL5 (RANTES) least square means % baseline±SEM: IPF patients
Protocol: as §1, §2, §3

[5] = tested on: MIF; assay: Plasma biomarker MIF; settings: for MIF raw data, Mean (SD) / MIF least square means % baseline±SEM: IPF patients
Protocol: as §1, §2, §3

[6] = tested on: PTX3; assay: Plasma biomarker PTX3; settings: for Pentraxin-3 (PTX3) raw data, Mean (SD) / PTX3 least square means % baseline±SEM: IPF patients
Protocol: as §1, §2, §3

[7] = tested on: MMP-1; assay: Plasma biomarker MMP-1; settings: for MMP-1 raw data, Mean (SD) / MMP-1 least square means % baseline±SEM: IPF patients
Protocol: as §1, §2, §3

[8] = tested on: CCL18 (PARC); assay: Plasma biomarker CCL18; settings: IPF patients
Protocol: as §1, §2, §3

[9] = tested on: IL-1ra; assay: Plasma biomarker IL-1ra; settings: for IL-1ra raw data, Mean (SD) / IL-1ra least square means % baseline±SEM: IPF patients
Protocol: as §1, §2, §3

[10] = human, inhaled or intranasal, single inhaled 1.5 mg, mean±SD
[11] = human, inhaled or intranasal, single inhaled 3 mg, mean±SD
[12] = human, inhaled or intranasal, single inhaled 10 mg, mean±SD
[13] = human, inhaled or intranasal, single inhaled 20 mg, mean±SD
[14] = human, inhaled or intranasal, single inhaled 50 mg, mean±SD

AUC(0-inf) [3, 10]: 17.9 ± 14 ng·h/mL
half-life [3, 10]: 1.13 ± 0.63 h
Cmax ([3]; human, inhaled or intranasal, single inhaled 1.5 mg, mean±SD, read-out: Cmax): 2.37 ± 1.48 ng/mL
AUC(0-inf) [3, 11]: 70.8 ± 22.7 ng·h/mL
half-life [3, 11]: 3 ± 0.82 h
Cmax ([3]; human, inhaled or intranasal, single inhaled 3 mg, mean±SD, read-out: Cmax): 8.21 ± 2.67 ng/mL
AUC(0-inf) [3, 12]: 184 ± 64.5 ng·h/mL
half-life [3, 12]: 1.19 ± 0.94 h
Cmax ([3]; human, inhaled or intranasal, single inhaled 10 mg, mean±SD, read-out: Cmax): 22.6 ± 8.69 ng/mL
AUC(0-inf) [3, 13]: 544 ± 114 ng·h/mL
half-life [3, 13]: 1.31 ± 1.8 h
Cmax ([3]; human, inhaled or intranasal, single inhaled 20 mg, mean±SD, read-out: Cmax): 81.1 ± 27 ng/mL
AUC(0-inf) [3, 14]: 1160 ± 532 ng·h/mL
half-life [3, 14]: 0.81 ± 0.8 h
Cmax ([3]; human, inhaled or intranasal, single inhaled 50 mg, mean±SD, read-out: Cmax): 126 ± 43.3 ng/mL
Cmax ([3]; single inhaled 0.15 mg, BLQ: below limit of quantification (0.5 ng·mL^−1)): BLQ
Structure (SMILES): OC[C@H]1O[C@@H](S[C@@H]2O[C@H](CO)[C@H](O)[C@H](n3cc(-c4cccc(F)c4)nn3)[C@H]2O)[C@H](O)[C@@H](n2cc(-c3cccc(F)c3)nn2)[C@H]1O [TD139]
PAI-1 difference in least square means % baseline (95% CI) ([1]; 10 mg vs placebo, ANCOVA): −151.8 (−265.3– −38.2) % baseline
PAI-1 raw data, Mean (SD) ([1]; Day 14, 0.3 mg): 45736.7 (29863.26) pg/ml
PAI-1 raw data, Mean (SD) ([1]; Day 14, 3 mg): 45744.4 (44222.1) pg/ml
PAI-1 raw data, Mean (SD) ([1]; Day 14, 10 mg): 23122.2 (12659.84) pg/ml
PAI-1 least square means % baseline±SEM ([1]; day 14, 0.3 mg once daily): 84.6±48.8 % baseline
PAI-1 least square means % baseline±SEM ([1]; day 14, 3 mg once daily): 92.4±44.5 % baseline
PAI-1 least square means % baseline±SEM ([1]; day 14, 10 mg once daily): 45.8±43.7 % baseline
IL-13 difference in least square means % baseline (95% CI) ([2]; 10 mg vs placebo, ANCOVA): −7.6 (−30.4–15.2) % baseline
IL-13 raw data, Mean (SD) ([2]; Day 14, 0.3 mg): 1219.4 (155.7) pg/ml
IL-13 raw data, Mean (SD) ([2]; Day 14, 3 mg): 1476.6 (140.99) pg/ml
IL-13 raw data, Mean (SD) ([2]; Day 14, 10 mg): 1358.8 (149.34) pg/ml
IL-13 least square means % baseline±SEM ([2]; day 14, 0.3 mg once daily): 87.4±8.8 % baseline
IL-13 least square means % baseline±SEM ([2]; day 14, 3 mg once daily): 100.4±9.5 % baseline
IL-13 least square means % baseline±SEM ([2]; day 14, 10 mg once daily): 97.6±8.8 % baseline
CCL5 (RANTES) difference in least square means % baseline (95% CI) ([4]; 10 mg vs placebo, ANCOVA): −54.1 (−147–38.8) % baseline
CCL5 (RANTES) raw data, Mean (SD) ([4]; Day 14, 0.3 mg): 47658.1 (27017.8) pg/ml
CCL5 (RANTES) raw data, Mean (SD) ([4]; Day 14, 3 mg): 75675.6 (92820.57) pg/ml
CCL5 (RANTES) raw data, Mean (SD) ([4]; Day 14, 10 mg): 33994.2 (29435.9) pg/ml
CCL5 (RANTES) least square means % baseline±SEM ([4]; day 14, 0.3 mg once daily): 62.3±37.1 % baseline
CCL5 (RANTES) least square means % baseline±SEM ([4]; day 14, 3 mg once daily): 115.1±35.1 % baseline
CCL5 (RANTES) least square means % baseline±SEM ([4]; day 14, 10 mg once daily): 75.8±35.8 % baseline
MIF difference in least square means % baseline (95% CI) ([5]; 10 mg vs placebo, ANCOVA): −120.2 (−339.2–98.9) % baseline
MIF raw data, Mean (SD) ([5]; Day 14, 0.3 mg): 65871.3 (42284.53) pg/ml
MIF raw data, Mean (SD) ([5]; Day 14, 3 mg): 38884 (35236.82) pg/ml
MIF raw data, Mean (SD) ([5]; Day 14, 10 mg): 39660.6 (57202.1) pg/ml
MIF least square means % baseline±SEM ([5]; day 14, 0.3 mg once daily): 123.6±83.6 % baseline
MIF least square means % baseline±SEM ([5]; day 14, 3 mg once daily): 95.9±83.9 % baseline
MIF least square means % baseline±SEM ([5]; day 14, 10 mg once daily): 73.9±83.7 % baseline
PTX3 difference in least square means % baseline (95% CI) ([6]; 10 mg vs placebo, ANCOVA): −69.6 (−220.3–81.2) % baseline
Pentraxin-3 (PTX3) raw data, Mean (SD) ([6]; Day 14, 0.3 mg): 116.3 (214.7) pg/ml
Pentraxin-3 (PTX3) raw data, Mean (SD) ([6]; Day 14, 3 mg): 629.9 (581.55) pg/ml
Pentraxin-3 (PTX3) raw data, Mean (SD) ([6]; Day 14, 10 mg): 2534.7 (4451.2) pg/ml
PTX3 least square means % baseline±SEM ([6]; day 14, 0.3 mg once daily): 51.8±68.6 % baseline
PTX3 least square means % baseline±SEM ([6]; day 14, 3 mg once daily): 74.2±53.1 % baseline
PTX3 least square means % baseline±SEM ([6]; day 14, 10 mg once daily): 67.0±56.1 % baseline
MMP-1 difference in least square means % baseline (95% CI) ([7]; 10 mg vs placebo, ANCOVA): −102.1 (−251.4–47.3) % baseline
MMP-1 raw data, Mean (SD) ([7]; Day 14, 0.3 mg): 535.1 (449.22) pg/ml
MMP-1 raw data, Mean (SD) ([7]; Day 14, 3 mg): 1494.4 (647.67) pg/ml
MMP-1 raw data, Mean (SD) ([7]; Day 14, 10 mg): 537.5 (257.55) pg/ml
MMP-1 least square means % baseline±SEM ([7]; day 14, 0.3 mg once daily): 67.3±56.3 % baseline
MMP-1 least square means % baseline±SEM ([7]; day 14, 3 mg once daily): 107.1±59.1 % baseline
MMP-1 least square means % baseline±SEM ([7]; day 14, 10 mg once daily): 62.1±58.1 % baseline
CCL18 (PARC) raw data, Mean (SD) ([8]; Day 14, 0.3 mg): 79733.8 (25166.88) pg/ml
CCL18 (PARC) raw data, Mean (SD) ([8]; Day 14, 3 mg): 73022.7 (33487.12) pg/ml
CCL18 (PARC) raw data, Mean (SD) ([8]; Day 14, 10 mg): 53456.8 (11339.99) pg/ml
CCL18 (PARC) least square means % baseline±SEM ([8]; day 14, 0.3 mg once daily): 89.6±11.8 % baseline
CCL18 (PARC) least square means % baseline±SEM ([8]; day 14, 3 mg once daily): 98.9±12.0 % baseline
CCL18 (PARC) least square means % baseline±SEM ([8]; day 14, 10 mg once daily): 74.6±11.8 % baseline
IL-1ra difference in least square means % baseline (95% CI) ([9]; 10 mg vs placebo, ANCOVA): 6.0 (−47.5–59.4) % baseline
IL-1ra raw data, Mean (SD) ([9]; Day 14, 0.3 mg): 548.3 (279.69) pg/ml
IL-1ra raw data, Mean (SD) ([9]; Day 14, 3 mg): 709.8 (338.05) pg/ml
IL-1ra raw data, Mean (SD) ([9]; Day 14, 10 mg): 1992.9 (2627.15) pg/ml
IL-1ra least square means % baseline±SEM ([9]; day 14, 0.3 mg once daily): 93.2±20.3 % baseline
IL-1ra least square means % baseline±SEM ([9]; day 14, 3 mg once daily): 98.7±20.2 % baseline
IL-1ra least square means % baseline±SEM ([9]; day 14, 10 mg once daily): 98.0±20.8 % baseline
